Reference: US4940723A, “Use of bis-(5-amidino-2-benzimidazolyl) methane (BABIM) to treat arthritis” (University of North Carolina, Chapel Hill, priority 1988, dated 1990)
Several values for one entry are separate records, joined by “and”; a condition that tells them apart may be missing. Identical values can stand only once.

Tests used:
PG-APS-induced arthritis [1] = assay: Clinical scoring of PG-APS-induced arthritis; type: in vivo, Lewis rats
Experimental: (§1) Inbred female Lewis rats were purchased from Charles River Laboratories, Inc. Their mean body weight at the start of the study was 145 g. Arthritis was induced by a single intraperitoneal injection of the 10S fraction of purified cell wall material in PBS. The volume was 0.5 ml, and the dose of PG-APS was equivalent to 15 μg of rhamnose content per gram of body weight. For the administration of BABIM into the tail vein the animals were lightly anesthetized with ether. The inhibitor was contained in 0.1 ml of saline. Control animals were injected in the same way, but received saline only. All rats had free access to food and water. Nineteen days after the initiation of arthritis, they were killed with an overdose of ether.
Severity of the arthritis was judged daily for the first 11 days after PG-APS injection and every one to three days. Involvement of each extremity was quantified on a scale from 0-4, yielding a maximum combined score of 16. Grading was restricted to the wrist and ankle joints and all joints distal from there. The individual score was based on the number of joints involved, the degree of cutaneous erythema, the extent of the swelling of the skin and periarticular soft tissue, and the enlargement and deformities of the joints.
The basic design of the experiments was as follows. Arthritis was induced in two groups of rats by the intraperitoneal application of PG-APS fragments. One group of animals received repeated injections of BABIM dissolved in saline, while the other group received saline only. The inhibitor dose of 10 mg/kg body weight was selected because it has been found effective in preliminary studies.
(§2) The dosing with inhibitor was begun two days before the induction of arthritis and was continued on a daily basis through day 6. From

PG-APS deposits in liver = assay: Quantification of PG-APS deposits in liver tissue (ELISA); type: in vivo, Lewis rats
Experimental: Measurements were based on a solid-phase enzyme-linked immunosorbent assay (ELISA) as known in the art. Briefly, microtiter plates were charged with group A cell wall antibodies and non-specific binding sites were blocked with human albumin. The coated walls were interacted with the tissue samples, and retention of PG-APS was determined from phosphate hydrolysis following sequential addition of affinity-purified biotinylated cell wall antibodies, avidin-alkaline phosphatase complexes and enzyme substrate. Standard curves were prepared with various amounts of the 10S PG-APS material and were used to correlate enzyme activity with levels of tissue deposits.
as §1, with “of ether. […]” for “of ether.”

Cls = conditions: in words; cited from earlier work
hemolytic complement = conditions: in words; cited from earlier work
PG-APS-induced arthritis [2] = assay: Histological grading of the severity of PG-APS-induced arthritis (hind leg); type: in vivo, Lewis rats
Experimental: as §1
(§3) After the rats were killed, autopsies were performed. The liver, spleen, kidneys, adrenal glands, and the skinned distal hind legs were saved for further examination. The livers were weighed individually, and a sample of each was frozen and held for ELISA of PG-APS fragments. All other tissues were fixed in phosphate-buffered formalin solution. The bones were decalcified in formic acid-sodium citrate solution. Sections were stained with hematoxylin and eosin.
For this evaluation the hind legs were used because they were more severely involved than the front legs. Both hind legs were studied, but as the disease processes were always symmetrical only one leg was scored. Included in the histologic sections were the distal tibia with the ankle joint, the tarsal bones, and the metatarsals. These were ranked on a scale of 0-4, based on the extent of bone marrow hyperplasia, the density of neutrophilic infiltration in bone and soft tissues, the degree of destruction of trabecular and cortical bone, and the magnitude of the synovial and periosteal proliferative response.
as §2

plasmin = conditions: in words; cited from earlier work
Clr = conditions: in words; cited from earlier work
trypsin = conditions: in words; cited from earlier work
[3] = tested on: PG-APS induced granulomatous hepatitis; assay: Liver weight and hepatic granulomata (PG-APS-induced granulomatous hepatitis); type: in vivo, Lewis rats
Experimental: as §1, §3, §2

[4] = Toxicity observation (physical, behavioral, organ histology) in BABIM-treated rats; type: in vivo, Lewis rats
Experimental: as §3, §2

urokinase = conditions: in words; cited from earlier work
granulomatous splenitis = assay: Splenic granulomatous involvement (PG-APS-induced granulomatous splenitis); type: in vivo, Lewis rats
Experimental: as §1, §3, §2
*Disease was scored on a scale of 0-4, based on the percentage of
granulomatous replacement of splenic parenchyma, where 0 = none, 1 = <25%

[5] = Dissolution in isotonic saline; type: physicochemical
Experimental: BABIM was synthesized according to established procedures. Purity of the compound was ascertained by infrared and nuclear magnetic resonance spectroscopy, thin-layer chromatography and elemental analysis. […] Solutions were prepared fresh on the day they were used.

adjuvant arthritis = conditions: Sprague-Dawley rats; cited from earlier work

N=C(N)c1ccc2nc(Cc3nc4ccc(C(=N)N)cc4[nH]3)[nH]c2c1 [BABIM, bis-(5-amidino-2-benzimidazolyl) methane]
Effect of 10 mg/kg dose in preliminary studies (PG-APS-induced arthritis [1]; 10 mg/kg body weight, preliminary studies): effective
Suppression of clinical signs of arthritis (PG-APS-induced arthritis [1]; FIG. 1, initial response and recurrence, 10 mg/kg): suppressed the clinical signs of arthritis dramatically
Relative suppression of arthritis versus hepatic and splenic granulomatous response (PG-APS-induced arthritis [1]; arthritis component compared with granulomata): more effectively dealt with
Clinical score (individual animal) (PG-APS-induced arthritis [1]; individual BABIM-treated rats, final day (day 19), 10 mg/kg i.v. from day -2, scale 0-4 per extremity, maximum combined 16, 10 mg/kg): 0 and 1 and 2
Treated rats completely free of arthritis at the initial peak (PG-APS-induced arthritis [1]; initial peak): 3 of the 7 treated rats
Clinical score, Mean ± SD (PG-APS-induced arthritis [1]; n=7, final day of experiment, P < 0.0001 versus vehicle (6.79 ± 2.86)): 0.43 ± 0.79
Treated rats without symptoms during the recurrence (PG-APS-induced arthritis [1]; recurrence): five
Blockade of recurrence of the disease (PG-APS-induced arthritis [1]; versus primary response): blocked as completely as the primary response
PG-APS deposits, Mean ± SD (PG-APS deposits in liver; liver, n=7, vehicle 0.226 ± 0.072): 0.237 ± 0.055 mg
Total amounts of PG-APS fragments deposited in liver (PG-APS deposits in liver; versus untreated animals): nearly the same
Inhibition in assays of Cls (Cls): only weakly inhibitory
Inhibition in hemolytic complement tests (hemolytic complement): only weakly inhibitory
Bone marrow composition in calcaneus (PG-APS-induced arthritis [2]; FIG. 2B, day 19): Predominantly fatty marrow
Inflammation of synovial recess of ankle joint (PG-APS-induced arthritis [2]; FIG. 4B, day 19): inflammation is absent
Appearance of joints and bone marrow spaces (PG-APS-induced arthritis [2]; cell wall-injected and BABIM-treated Lewis rats): pristine appearance
BABIM-treated animals with complete absence of histological joint/bone abnormalities (PG-APS-induced arthritis [2]; day 19, FIGS. 2B, 3B, 4B): five
Histologic score (individual animal) (PG-APS-induced arthritis [2]; individual BABIM-treated rats, day 19, scale 0-4, 10 mg/kg i.v., 10 mg/kg): 0 and 1.5 and 1
Histologic score, Mean ± SD (PG-APS-induced arthritis [2]; n=7, day 19, P < 0.0001 versus vehicle (2.81 ± 0.46)): 0.36 ± 0.63
Joint changes in the two BABIM-treated animals that developed joint disease (PG-APS-induced arthritis [2]; versus untreated rats): on a much smaller scale
Plasmin inhibition (plasmin): potent inhibitor
Inhibition in assays of Clr (Clr): only weakly inhibitory
Trypsin inhibition (trypsin): potent inhibitor
Reduction in the number of hepatic granulomata ([3]; 0.5 cm^2 liver sections, versus untreated): two-thirds
Granulomata, No. per section, Mean ± SD ([3]; liver, 0.5 cm^2 sections, n=7, P < 0.005 versus vehicle (81.8 ± 34.5)): 25.6 ± 26.3
Percentage of centrally necrotic lesions ([3]; liver, both groups): approximately 50%
Granulomata, % with necrosis ([3]; liver, n=7, vehicle 56): 43%
Weight of Liver, Mean ± SD ([3]; n=7, day 19, P < 0.002 versus vehicle (18.5 ± 3.8)): 11.0 ± 3.5 gm
Size and makeup of hepatic granulomata ([3]; versus untreated animals): same size and makeup
Physical or behavioral abnormalities caused by the drug ([4]; 10 mg/kg, repeated i.v. injections): None of the recipients of BABIM showed any physical or behavioral abnormalities
BABIM related toxicity, histological examination ([4]; liver, kidney, adrenal glands, and spleen): absence of BABIM related toxicity
Urokinase inhibition (urokinase): potent inhibitor
Inhibitor-treated animals with granulomatous inflammation in the spleen (granulomatous splenitis; all untreated rats affected): three
Splenic disease score, Mean ± SD (granulomatous splenitis; n=7, scale 0-4, not significantly different from vehicle 2.63 ± 1.3 (P > 0.2)): 1.71 ± 1.5
BABIM recipients rated the highest splenic grade (score of 4) (granulomatous splenitis; rat, in vivo): three
BABIM recipients with no splenic disease (granulomatous splenitis; rat, in vivo): four
Solubility in isotonic saline [5]: easily dissolved

N=C(N)c1ccc2cc(OC(=O)c3ccc(N=C(N)N)cc3)ccc2c1 [FUT-175]
Influence on adjuvant arthritis (adjuvant arthritis): beneficial influence
